The results in this text go back to PMC9072125 (RSC Advances, 2019).

This experiment has as its system LfDAPDH. Particulars: 200 mM NH4Cl, 0.5 mM NADPH, 50 mM Na2CO3/NaHCO3 pH 9.0, 30 °C; reductive amination.

`O=C(O)C(=O)Cc1ccccc1` [PPA]: the Km was determined as 7.61 ± 0.14 mM.
